From patent publication US4127671A, “P-acetamidophenyl diethylaminoacetate” (Societe Anonyme dite: HEXACHIME, priority 1977, dated 1978)

Columns and labels:
[1] = pharmacological properties compared with paracetamol; type: in vivo
Protocol: (§1) The analgesic action of the product was determined by the following method: batches of 6 male mice (SPF, OFI strain), weighing 19 to 20 g, received the test product by intravenous means. 0.3 c.c. per mouse of a 0.02% solution of phenyl benzoquinone was simultaneously injected by intraperitoneal means and the number of reactions of pain (abdominal twists) was counted from the 5 to the 10 minute after the latter treatment.
The antihyperthermisant action of the product according to the invention was determined by the following method: batches of 5 male Fauve de Bourgogne rabbits weighing 2 to 3 kg receive by intraveneous means 1 c.c./kg of an endotoxin solution of Salmonella abortus equivalent to 1 γ/kg in the physiological serum.
Two and a half hours later, the test product was administered in a physiological solution by intraveneous means.
The rectal temperature was recorded at regular intervals by an Ellab thermocouple. The probe was pressed 80 mm in.

[2] = release of p-acetamidophenol in the organism
solubility in water = type: physicochemical; conditions: novel derivative
[3] = system: reactions of pain (abdominal twists), phenyl benzoquinone; assay: analgesic action: inhibition of phenyl benzoquinone-induced reactions of pain (abdominal twists); type: in vivo, male mice (SPF, OFI strain); conditions: mice, pain reactions counted from 5 to 10 minute
Protocol: as §1
The following Table I gives the inhibitory percentage of these reactions.

[4] = stability of aqueous solutions; type: physicochemical; conditions: with the passage of time

CCN(CC)CC(=O)Oc1ccc(NC(C)=O)cc1 [p-acetamidophenyl diethylaminoacetate]
pharmacological properties [1]: comparable to those of paracetamol
release of p-acetamidophenol [2]: rapidly releases p-acetamidophenol
solubility in water (solubility in water): very soluble in water
% of inhibition ([3]; 8 mg/kg I.V.): 26%
% of inhibition ([3]; 16 mg/kg I.V.): 41%
% of inhibition ([3]; 32 mg/kg I.V.): 68%
% of inhibition ([3]; 64 mg/kg I.V.): 94%
stability of aqueous solutions [4]: stable with the passage of time
